Measurements reported in PubChem BioAssay AID652072 (Broad Institute, 2013).
Records with an inconclusive call do not appear.

Test system: LOX IMVI melanoma, caspase 3/7 luminescence, apoptosis
Assay: caspase 3/7 activation in LOX IMVI melanoma cells, dose response, mechanism study for HRAS target identification, cell-based, luminescence, multiple timepoints, dry powder (AID 652072)
Conditions: measured here: caspase 3/7, timepoint 3

How did the AC40 turn out when `CCC(=O)N(c1ccc(OC)c(Cl)c1)C(C(=O)NCCc1ccccc1)c1cccs1` (stereo unspecified) was run?
Its AC40 is over 35 µM.
